Laboratory results from paper PMC6062912, “The Evolutionary Conserved γ-Core Motif Influences the Anti-Candida Activity of the Penicillium chrysogenum Antifungal Protein PAF” (Frontiers in Microbiology, 2018).
Values after ≈ are worked out from the molar mass of the structure shown. Where two headings read alike, the source gives them in different places. Residues, ends and D or L forms follow the SMILES beside them.

What was measured:
Assay type in all cases: cell-based, Candida albicans
C. albicans [1] = details: 2 h
Protocol: Fungistatic or fungicidal activities were determined by incubating C. albicans (10^4 cells mL^-1) in 0.05× PDB with proteins and peptides at 1× MIC and 2× MIC of at 30°C under continuous shaking (800 rpm) in a Thermomixer Comfort (Eppendorf). At defined time points, aliquots were taken and appropriate dilutions were plated on YPD agar in duplicates to promote growth of viable cells. Agar plates were incubated at 37°C for 24 h to count colony forming units (cfu) ([Huber et al., 2018]).
The determination of the MIC concentration is a well-established, reliable method to elucidate the growth reducing effect of an antifungal compound. […] To gain deeper insight into the antifungal mechanism of the generated protein and peptide variants, we compared them first for their fungicidal potential. In liquid culture C. albicans was exposed to 1× MIC and 2× MIC concentrations of each protein and peptide. After certain time points aliquots were taken and appropriate dilutions were spread on agar plates to allow colony formation of viable cells. The cfu were counted and compared to the untreated control, which was set to be 100%. […] The candidacidal effects were aggravated with higher protein concentrations.

C. albicans biofilms = test: Anti-biofilm activity, FDA fluorescence; details: AMP 0–40 μM for 24 h at 30°C; for concentration inhibiting cell metabolism in biofilm (FDA fluorescence): 24-h-old biofilms; for concentration with anti-biofilm (inhibitory) activity, extinction of FDA fluorescence: 1 h old (young) biofilms
Protocol: The antifungal activity against C. albicans biofilms was determined in 96-well microtiter plates (Nunclon Delta, Thermo Fisher Scientific). Cells (10^5) in 100 μL 0.05× PDB were distributed per well and plates were incubated at 37°C for up to 24 h to allow biofilm formation. After cell adherence, the microtiter plates were washed once with 0.05× PDB and the test substances were added in increasing concentrations in 100 μL 0.05× PDB per well. H2O2 served as a control for cell killing. The plates were further incubated at 30°C for 24 h. The wells were washed once with 0.05× PDB and 100 μL of FDA solution (40 μg mL^-1 in 0.05× PDB) was added to the wells. Wells containing only FDA solution (40 μg mL^-1 in 0.05× PDB) were used as blank background control. The plates were incubated for 1 h at 37°C in the dark before the fluorescence signal intensity was measured in a multi-mode microplate reader (FLUOstar Omega, BMG Labtech) with excitation and emission wavelengths of 485 and 520 nm. All experiments were prepared at least in duplicates and repeated at least twice.
Next, we analyzed the potential of the AMPs to inhibit C. albicans biofilm formation. Low susceptibility of biofilms to antifungal agents is often a limiting factor in anti-Candida treatment. To this end, C. albicans cells were distributed in 96-well microtiter plates, allowed to settle down, and to develop biofilms for 1 and 24 h. Then, planktonic cells were washed off and AMPs were added to the biofilms for another 24 h in a concentration range of 0–40 μM. The biofilms were then quantified by adding FDA to the wells. Metabolically active cells convert non-fluorescent FDA into highly fluorescent fluorescein by intracellular enzymatic activity ([Peeters et al., 2008]). The resulting fluorescence signal intensity from AMP-treated biofilms was measured and compared to untreated conditions. […] Twenty-four-hour-old biofilms, however, were resistant against PAF, PAF^var, and PAF^opt in the investigated concentration range (data not shown).

C. albicans [2] = details: 24 h
Protocol: Fungal strains used in this study are listed in Supplementary Table S1 and composition of growth media is given in Supplementary Table S2. All P. chrysogenum shaking cultures were inoculated with 2 × 10^8 conidia, in 200 mL defined minimal medium (PcMM) for protein expression or complete medium (CM) before transformation, and grown at 25°C as described ([Sonderegger et al., 2016]). For conidial suspension generation from surface cultures, P. chrysogenum was grown on PcMM agar at 25°C. C. albicans was used as PAF-sensitive model organism and was cultivated on yeast extract peptone dextrose (YPD) agar at 37°C. For growth inhibition and susceptibility assays, C. albicans was grown in 20-fold diluted potato dextrose broth (PDB, Sigma-Aldrich) at 30°C, pH 5.5 ([Huber et al., 2018]).
The MIC of all protein and peptide variants was determined on C. albicans with broth microdilution assays in 96-well microtiter plates (Nunclon Delta, Thermo Fisher Scientific). From a fresh C. albicans overnight culture on YPD agar, cells were harvested with an inoculation loop and suspended in 0.05× PDB (Sigma-Aldrich) ([Arendrup et al., 2016]). The cell number was determined with a counting chamber (Bürker) and the cell number was adjusted to 10^4 mL^-1. In each well, 10^3 cells were incubated with increasing concentrations of antifungal proteins or peptides in a final volume of 200 μL 0.05× PDB. The plates were incubated for 24 h at 30°C before the growth was determined by measuring the optical density (OD620nm) with a multi-mode microplate reader (FLUOstar Omega, BMG Labtech). The MIC was defined as the protein concentration that inhibited growth by ≥90% compared to the untreated control, which was referred as 100% growth.

Row | SMILES | Candida cells killed (cfu vs untreated control) (C. albicans [1]; 1) [%] | Candida cells killed (cfu vs untreated control) (C. albicans [1]; 2) [%] | concentration inhibiting cell metabolism in biofilm (FDA fluorescence) (C. albicans biofilms) [µM] | concentration with anti-biofilm (inhibitory) activity, extinction of FDA fluorescence (C. albicans biofilms) [µM] | Candida cells killed (cfu vs untreated control) (C. albicans [1]; 1× MIC, 0.05× PDB, 30°C, mean ± SD) | MIC (C. albicans [2]) [µM]
1 | CC(=O)N[C@@H](CCCCN)C(=O)N[C@@H](Cc1ccc(O)cc1)C(=O)N[C@H](C(=O)NCC(=O)N[C@@H](CCCCN)C(=O)N[C@@H](CS)C(=O)N[C@@H](CCCCN)C(=O)N[C@H](C(=O)N[C@@H](CCCCN)C(=O)N[C@@H](CCCCN)C(=O)N[C@@H](CC(N)=O)C(=O)N[C@@H](CCCCN)C(=O)N[C@@H](CS)C(=O)N[C@@H](CCCCN)C(N)=O)[C@@H](C)O)[C@@H](C)O [Pγ^opt] (Ac-KYTGKCKTKKNKCK-NH2) | 29 ± 10 | 88 ± 8 | 10 | 10 |  | 
2 | CC(=O)N[C@@H](CCCCN)C(=O)N[C@@H](Cc1ccc(O)cc1)C(=O)N[C@H](C(=O)NCC(=O)N[C@@H](CCCCN)C(=O)N[C@@H](CS)C(=O)N[C@@H](Cc1ccc(O)cc1)C(=O)N[C@@H](CCCCN)C(=O)N[C@@H](CCCCN)C(=O)N[C@@H](CCCCN)C(=O)N[C@@H](CC(N)=O)C(=O)N[C@@H](CCC(=O)O)C(=O)N[C@@H](CS)C(=O)N[C@@H](CCCCN)C(N)=O)[C@@H](C)O [Pγ^var] (Ac-KYTGKCYKKKNECK-NH2) |  | 50 ± 28 | 20 | 10 | no killing effects | 2.5 (≈ 4.41 µg/mL)
